The values below come from US7491827B2, “Aryl sulfonamides useful as inhibitors of chemokine receptor activity” (Millennium Pharmaceuticals, Inc., priority 2003, dated 2009).

In the first experiment the target is T1, cloned human CCR8 receptor stably expressed in L1.2 cells (Homo sapiens, UniProt P51685).
T1 construct: expressed in transfected cells
T1 sequence (P51685 whole entry): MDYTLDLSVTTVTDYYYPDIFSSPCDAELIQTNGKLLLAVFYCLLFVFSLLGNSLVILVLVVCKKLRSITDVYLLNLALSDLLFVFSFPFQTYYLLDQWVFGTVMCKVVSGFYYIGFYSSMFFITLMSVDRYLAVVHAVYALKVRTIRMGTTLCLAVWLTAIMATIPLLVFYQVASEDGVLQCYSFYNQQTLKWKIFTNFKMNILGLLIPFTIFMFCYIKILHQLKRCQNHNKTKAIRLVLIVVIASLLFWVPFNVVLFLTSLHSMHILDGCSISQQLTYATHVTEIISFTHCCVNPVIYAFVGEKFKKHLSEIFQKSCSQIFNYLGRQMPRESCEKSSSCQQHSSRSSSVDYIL
Description: whole cell binding screen: inhibition of biotinylated human I309 binding to CCR8 (FMAT 8100 HTS). Conditions: Ki of compounds to inhibit I-309 binding to CCR8, L1.2/hCCR8 cells, biotinylated human I-309, 10 point concentration response starting at 10 μM. In outline:
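L1.2 murine pre-B cells stably expressing human CCR8 (4.0×10^5 cells/mL) in HBSS/HEPES/fatty-acid-free BSA/azide buffer were mixed with biotinylated human I309 and compounds for 0.5 h, read by FMAT fluorescence. 10-point curves from 10 μM final; percent inhibition normalized to no-inhibitor and 100 nM unlabeled I309 controls.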
The molecule `CCOC(=O)N1CCC(NS(=O)(=O)c2ccc3cccc(NC(=O)c4ccccc4)c3c2)CC1` [Compound H-51, 4-(8-Benzoylamno-naphthalene-2-sulfonylamino)-piperidine-1-carboxylic acid ethyl ester] displayed an inhibition constant (Ki) of less than 30000 nM.

The experiment is the same for the next values; noted with them: L1.2/hCCR8 cells, biotinylated human I-309, 10 point concentration response starting at 10 μM; read-out: Ki of compounds to inhibit I-309 binding to CCR8.
As for `CCOC(=O)N1CCC(NS(=O)(=O)c2cccc3c(C(=O)Nc4ccccc4Cl)cccc23)CC1` [Compound H-34, 4-[5-(2-chloro-phenylcarbamoyl)-naphthalene-1-sulfonylamino]-piperidine-1-carboxylic acid ethyl ester], the Ki is less than 500 nM.
For `CCOC(=O)N1CCC(NS(=O)(=O)c2cccc3c(C(=O)Nc4cccnc4)cccc23)CC1` [Compound H-35, 4-[5-(Pyridin-3-ylcarbamoyl)-naphthalene-1-sulfonylamino]-piperidine-1-carboxylic acid ethyl ester], the inhibition constant (Ki) is less than 1000 nM.
Regarding `CCOC(=O)N1CCC(NS(=O)(=O)c2cccc3c(C(=O)Nc4cccc(C)c4C)cccc23)CC1` [Compound H-36, 4-[5-(2,3-Dimethyl-phenylcarbamoyl)-naphthalene-1-sulfonylamno]-piperidine-1-carboxylic acid ethyl ester], the Ki is less than 500 nM.
For the molecule `CCCC(=O)N1CCC(NS(=O)(=O)c2cccc3c(C(=O)Nc4cccc(C)c4C)cccc23)CC1` [Compound H-37, 5-(1-Butyryl-piperidin-4-ylsulfamoyl)-naphthalene-1-carboxylic acid (2,3-dimethyl-phenyl)-amide], the inhibition constant Ki was less than 500 nM.
The same measure, in the same setting: the value for `Cc1cccc(NC(=O)c2cccc3c(S(=O)(=O)NC4CCN(C(=O)N(C)C)CC4)cccc23)c1C` [Compound H-38, 4-[5-(2,3-Dimethyl-phenylcarbamoyl)-naphthalene-1-sulfonylamino]-piperidine-1-carboxylic acid dimethylamide] was less than 500 nM.
Consider `CCCC(=O)N1CCC(NS(=O)(=O)c2cccc3c(C(=O)Nc4ccccc4C)cccc23)CC1` [Compound H-39, 5-(1-Butyryl-piperidin-4-ylsulfamoyl)-naphthalene-1-carboxylic acid o-tolylamide], for which the Ki is less than 500 nM.
As for `CCOC(=O)N1CCC(NS(=O)(=O)c2cccc3c(C(=O)Nc4cccc(C)c4)cccc23)CC1` [Compound H-41, 4-(5-m-Tolylcarbamoyl-naphthalene-1-sulfonylamino)-piperidine-1-carboxylic acid ethyl ester], the Ki was less than 30000 nM.
The same measure, in the same setting: for `CCOC(=O)N1CCC(NS(=O)(=O)c2cccc3c(CNCc4ccc(Cl)cc4)cccc23)CC1` [Compound H-45, 4-{5-[(4-Chloro-benzylamino)-methyl]-naphthalene-1-sulfonylamino}-piperidine-1-carboxylic acid ethyl ester] the value was less than 500 nM.
For the molecule `CCOC(=O)N1CCC(NS(=O)(=O)c2cccc3c(CNC4CCCCC4)cccc23)CC1` [Compound H-46, 4-(5-Cyclohexylainnomethyl-naphthalene-1-sulfonylainino)-piperidine-1-carboxylic acid ethyl ester], the Ki is less than 500 nM.
In the case of `COc1ccc(NS(=O)(=O)c2ccc3cccc(NC(=O)c4ccccc4)c3c2)cc1` [Compound H-47, N-[7-(4-Methoxy-phenylsulfamoyl)-naphthalen-1-yl]-benzamide], the Ki is less than 500 nM.
For the molecule `O=C(Nc1cccc2ccc(S(=O)(=O)Nc3ccc(F)cc3)cc12)c1ccccc1` [Compound H-48, N-[7-(4-Fluoro-phenylsulfamoyl)-naphthalen-1-yl]-benzamide], the Ki was less than 30000 nM.
As for `CCc1ccc(NS(=O)(=O)c2ccc3cccc(NC(=O)c4ccccc4)c3c2)cc1` [Compound H-49, N-[7-(4-Ethyl-phenylsulfamoyl)-naphthalen-1-yl]-benzamide], the Ki is less than 30000 nM.
As to `CC(C)c1ccc(NS(=O)(=O)c2ccc3cccc(NC(=O)c4ccccc4)c3c2)cc1` [Compound H-50, N-[7-(4-Isopropyl-phenylsuffamoyl)-naphthalen-1-yl]-benzamide], the inhibition constant (Ki) is less than 30000 nM.
With `Cc1ccccc1C(=O)Nc1cc(S(=O)(=O)NC2CCN(C(=O)C(C)C)CC2)cc2c1CCCC2` [Compound H-53, N-[3-(1-Isobutyryl-piperidin-4-ylsulfamoyl)-5,6,7,8-tetrahydro-naphthalen-1-yl]-2-methyl-benzamide], the Ki is less than 30000 nM.
Same read-out and setting: for `O=C(Nc1cc(S(=O)(=O)NC2CCCCC2)cc2c1CCCC2)c1ccccc1` [Compound H-54, N-(3-Cyclohexylsulfamoyl-5,6,7,8-tetrahydro-naphthalen-1-yI)-benzamide] the value was less than 500 nM; for `COc1ccc(NS(=O)(=O)c2cc3c(c(NC(=O)c4ccccc4)c2)CCCC3)cc1` [Compound H-55, N-[3-(4-Methoxy-phenylsulfamoyl)-5,6,7,8-tetrahydro-naphthalen-1-yl]-benzamide], less than 30000 nM; for `CCOC(=O)N1CCC(NS(=O)(=O)c2cc3c(c(NC(=O)c4ccccc4)c2)CCCC3)CC1` [Compound H-56, 4-(4-Benzoylamino-5,6,7,8-tetrahydro-naphthalene-2-sulfonylamino)-piperidine-1-carboxylic acid ethyl ester], less than 500 nM.
Consider `CCOC(=O)N1CCC(NS(=O)(=O)c2cc3c(c(NC(=O)C4CCCCC4)c2)CCCC3)CC1` [Compound H-57, 4-[4-(Cyclohexanecarbonyl-amino)-5,6,7,8-tetrahydro-naphthalene-2-sulfonylamino]-piperidine-1-carboxylic acid ethyl ester], for which the Ki is less than 1000 nM.
With `Cc1ccccc1C(=O)Nc1cc(S(=O)(=O)NC2CCCCC2)cc2c1CCCC2` [Compound H-58, N-(3-Cyclohexylsulfamoyl-5,6,7,8-tetrahydro-naphthalen-1-yl)-2-methyl-benzamide], the Ki is less than 1000 nM.
Consider `CCOC(=O)N1CCC(NS(=O)(=O)c2cc3c(c(NC(=O)c4ccccc4C)c2)CCCC3)CC1` [Compound H-59, 4-[4-(2-Methyl-benzoylamino)-5,6,7,8-tetrahydro-naphthalene-2-sulfonylamino]-piperidine-1-carboxylic acid ethyl ester], for which the Ki was less than 1000 nM.
In the case of `CCCC(=O)N1CCC(NS(=O)(=O)c2cc3c(c(N4C(=O)c5ccccc5C4=O)c2)CCCC3)CC1` [Compound H-60, 4-(1,3-Dioxo-1,3-dihydro-isoindol-2-yl)-5,6,7,8-tetrahydro-naphthalene-2-sulfonic acid (1-butyryl-piperidin-4-yl)-amide], the Ki was less than 30000 nM.
On to `CCCC(=O)N1CCC(NS(=O)(=O)c2cc3c(c(NC(=O)c4ccccc4Cl)c2)CCCC3)CC1` [Compound H-63, N-[3-(1-Butyryl-piperidin-4-ylsulfamoyl)-5,6,7,8-tetrahydro-naphthalen-1-yl]-2-chloro-benzamide], for which the Ki was less than 30000 nM.
On the same count and under the same terms, for `CCOC(=O)N1CCC(NS(=O)(=O)c2ccc(NC(=O)c3ccccc3C)c3c2CCC3)CC1` [Compound H-64, 4-[7-(2-Methyl-benzoylamino)-indane-4-sulfonylamino]-piperidine-1-carboxylic acid ethyl ester] the value was less than 500 nM; for `CCCC(=O)N1CCC(NS(=O)(=O)c2ccc(NC(=O)c3ccccc3C)c3c2CCC3)CC1` [Compound H-65, N-[7-(1-Butyryl-piperidin-4-ylsulfamoyl)-indan-4-yl]-2-methyl-benzamide], less than 500 nM.
For the molecule `Cc1ccccc1C(=O)Nc1ccc(S(=O)(=O)NC2CCN(C(=O)OC(C)(C)C)CC2)c2c1CCC2` [Compound H-66, 4-[7-(2-Methyl-benzoylamino)-indane-4-sulfonylamino]-piperidine-1-carboxylic acid tert-butyl ester], the Ki was less than 1000 nM.
As to `Cc1ccccc1C(=O)Nc1ccc(S(=O)(=O)NC2CCNCC2)c2c1CCC2` [Compound H-67, 2-Methyl-N-[7-(piperidin-4-ylsulfamoyl)-indan-4-yl]-benzamide], the Ki was less than 1000 nM.
In the case of `CCNC(=O)N1CCC(NS(=O)(=O)c2ccc(NC(=O)c3ccccc3C)c3c2CCC3)CC1` [Compound H-69, 4-[7-(2-Methyl-benzoylamino)-indane-4-sulfonylamino]-piperidine-1-carboxylic acid ethylamide], the Ki was less than 500 nM.
Same read-out and setting: for `Cc1ccccc1C(=O)Nc1ccc(S(=O)(=O)NC2CCN(C(=O)OC(C)C)CC2)c2c1CCC2` [Compound H-70, 4-[7-(2-Methyl-benzoylamino)-indane-4-sulfonylamino]-piperidine-1-carboxylic acid isopropyl ester] the value was less than 500 nM; for `Cc1ccccc1C(=O)Nc1ccc(S(=O)(=O)N[C@@H]2CCN(C(=O)[C@@H]3CCCN3)C[C@H]2C)c2ccccc12` [Compound J-1, (3R,4R)-2-(S)-Methyl-N-{4-[3-methyl-1-(pyrrolidine-2-carbonyl)-piperidin-4-ylsulfamoyl]-naphthalen-1-yl}-benzamide], less than 500 nM; for `Cc1ccccc1C(=O)Nc1ccc(S(=O)(=O)N[C@H]2CCN(C(=O)[C@H](C)N)C[C@@H]2C)c2ccccc12` [Compound J-2, (3S, 4S)-N-{4-[1-(2-(S)-Amino-propionyl)-3-methyl-piperidin-4-ylsulfamoyl]-naphthalen-1-yl}-2-methyl-benzamide], less than 500 nM.
Still for that read-out and setting: for `Cc1ccccc1C(=O)Nc1ccc(S(=O)(=O)N[C@@H]2CCN(C(=O)[C@H](C)N)C[C@H]2C)c2ccccc12` [Compound J-3, (3R, 4R)-N-{4-[1-(2-(S)-Amino-propionyl)-3-methyl-piperidin-4-ylsulfamoyl]-naphthalen-1-yl}-2-methyl-benzamide] the value was less than 500 nM; for `Cc1ccccc1C(=O)Nc1ccc(S(=O)(=O)N[C@@H]2CCN(C(=O)[C@H](C)N)C[C@@H]2C)c2ccccc12` [Compound J-4, (3S, 4R)-N-{4-[1-(2-(S)-Amino-propionyl)-3-methyl-piperidin-4-ylsulfamoyl]-naphthalen-1-yl}-2-methyl-benzamide], less than 500 nM.

One may read the Ki as a measure of affinity in units of concentration, obtained from inhibition or displacement.
